Laboratory results: ChEMBL document CHEMBL6074645, “Structure-based virtual screening discovers novel PKMYT1 inhibitors” (RSC Med Chem, 2024)

Each compound was assayed against T1, Membrane-associated tyrosine- and threonine-specific cdc2-inhibitory kinase (Homo sapiens, UniProt Q99640) (assay: Displacement of fluorescently labeled tracer from human PKMYT1 (75 to 362 residues) expressed in Escherichia coli BL21 (DE3) by fluorescence anisotropy based kinase assay).
T1 sequence (Q99640 whole entry): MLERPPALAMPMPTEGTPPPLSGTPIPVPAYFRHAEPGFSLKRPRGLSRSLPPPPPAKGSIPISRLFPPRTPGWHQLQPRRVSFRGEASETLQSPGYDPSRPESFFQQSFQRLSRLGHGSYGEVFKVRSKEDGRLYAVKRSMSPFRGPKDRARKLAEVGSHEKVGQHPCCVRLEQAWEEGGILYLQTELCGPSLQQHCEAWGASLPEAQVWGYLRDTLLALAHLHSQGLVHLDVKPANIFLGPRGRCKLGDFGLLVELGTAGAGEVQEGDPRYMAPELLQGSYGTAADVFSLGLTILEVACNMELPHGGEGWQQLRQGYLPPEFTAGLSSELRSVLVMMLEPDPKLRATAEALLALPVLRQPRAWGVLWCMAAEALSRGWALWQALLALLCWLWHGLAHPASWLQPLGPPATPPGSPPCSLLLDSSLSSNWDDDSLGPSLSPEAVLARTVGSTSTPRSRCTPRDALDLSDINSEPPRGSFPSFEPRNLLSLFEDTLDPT

Which IC50 does the source give for `CCN(CC)CCOc1ccc(Nc2ncc3cc(-c4c(Cl)cccc4Cl)c(=O)n(C)c3n2)cc1` [PD-0166285] here?
Its IC50 is 0.072 µM.

These compounds were tested against T1, Membrane-associated tyrosine- and threonine-specific cdc2-inhibitory kinase (assay: Inhibition of PKMYT1 (unknown origin) incubated for 1 hr by LanthaScreen Eu kinase binding method).

Which IC50 does the source give for `O=C(O[C@@H]1Cc2c(O)cc(O)cc2O[C@@H]1c1cc(O)c(O)c(O)c1)c1cc(O)c(O)c(O)c1` [EPIGALOCATECHIN GALLATE] here?
Its IC50 is 0.137 µM.

How did the IC50 turn out when `O=C(O[C@@H]1Cc2c(O)cc(O)cc2O[C@H]1c1cc(O)c(O)c(O)c1)c1cc(O)c(O)c(O)c1` [GALLOCATECHIN GALLATE] was run?
Its IC50 is 0.159 µM.

How did the IC50 turn out when `O=c1c(-c2ccc(O)cc2)coc2cc(O)cc(O)c12` [GENISTEIN] was run?
Its IC50 is 78 µM.

How did the IC50 turn out when `COc1ccc(-c2oc3c(CC=C(C)C)c(O)cc(O)c3c(=O)c2O)cc1` [ICARITIN] was run?
The IC50 was 51 µM.

Which IC50 does the source give for `O=c1cc(-c2ccc(O)c(O)c2)oc2cc(O)cc(O)c12` [LUTEOLIN] here?
The IC50 was 1.5 µM.
